The assay concerns the target T1, RANK (Mus musculus, UniProt O35305).
T1 construct: gene Tnfrsf11a; extracellular segment of RANK (amino acid 26–210), His-RANK fusion expressed in E. coli
T1 sequence (O35305 26-210): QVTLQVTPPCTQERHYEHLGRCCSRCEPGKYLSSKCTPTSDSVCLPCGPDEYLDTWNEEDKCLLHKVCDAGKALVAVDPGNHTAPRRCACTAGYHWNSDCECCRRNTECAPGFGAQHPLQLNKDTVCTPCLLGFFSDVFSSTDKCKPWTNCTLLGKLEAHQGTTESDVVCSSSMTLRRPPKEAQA
Description: SPR on immobilized RANK; supported by CETSA in RAW264.[…] cells. The class given is binding.

Experimental findings from paper PMC12733451, “A Novel RANKL/RANK Inhibitor IMB-R38 Inhibits Osteoporosis Through Regulating Bone Metabolism” (International Journal of Molecular Sciences, 2025) are described below.

By Kd is commonly meant the constant that tells how readily two partners part at equilibrium. Low readings indicate higher affinity, high ones lower affinity. `O=C(Nc1ccc(N2CCCCC2)cc1)c1ccccc1O` [IMB-R38, 2-hydroxy-N-(4-(piperidin-1-yl)phenyl)benzamide] returned a Kd of 945 µM.
